Experimental findings from US7332495B2 (priority 2002, dated 2008) are described below.

Where a name gives a salt, the structure may show the parent alone. Read-outs that look alike come from different tables or passages of the source.

For data set [1], the system named is Kunming mice. Briefly: Sedation: spontaneous activities recorded with alternating current tube. Format: in vivo. Particulars: for inhibition in vivo at 20 mg/kg: Mus musculus, ip, i.p. 20 mg/Kg, spontaneous activities. Here is the method: Kunming mice were used, with a male-female ratio of 50-50%. […] After 30 minutes, acetic acid (0.7%, […] i.p.) was injected and the number of writhes was observed during a 5-minute period after acetic acid administration. The inhibition ratio of the writhing threshold was calculated. The alternating current tube is used to record the spontaneous activities for measuring sedation.

The test system of data set [2] is Kunming mice. Briefly: Mice writhing model (acetic acid). Format: in vivo. The following applies: for inhibition in vivo at 20 mg/kg: Mus musculus, ip, i.p. 20 mg/Kg, acetic acid 0.7% i.p. after 30 minutes, writhes in 5 minutes, read-out: Analgesia (inhibition ratio of writhing). Here is the method: Kunming mice were used, with a male-female ratio of 50-50%. The test compound is administered i.p. (20 mg/Kg body weight) to the test groups, and physiological saline is administered P.O. (20 ml/Kg body weight) to the control group. After 30 minutes, acetic acid (0.7%, […] i.p.) was injected and the number of writhes was observed during a 5-minute period after acetic acid administration. The inhibition ratio of the writhing threshold was calculated. The alternating current tube is used to record the spontaneous activities for measuring sedation.
(§1) Two species of animals (mice and rats) and four types of pain testing models (i.p. 0.7% acetic acid, s.c. 5% formalin, hot plate 55° C., focused radiant heat) were used.
For orientation: An intraperitoneal irritant provokes the stretching counted in writhing tests.

In data set [3] the test system is rat. Briefly: animal or person. The following applies: for responders at 20 mg/kg: Rattus norvegicus, ip. How it is done: Using 55° C. hot plate pain threshold detector (available from Ninghai Baishi Electronic Medical Instrument Co., Zheijiang, China) the threshold change before and after administration of a pharmaceutical composition of the present invention is tested. […] hind paw was scrubbed with alcohol cotton ball before the experiment. The regular pain threshold was tested twice for each rat, the induced hind paw licking time being recorded as the pain threshold. Measurements were made at 20-30 minute intervals. Only rats with stable pain reaction were used in the pharmaceutical test.
as §1

Data set [4] relates to rat. Briefly: Rat tail flick model (focused radiant heat). In kind it is in vivo. Particulars: for change in vivo at 20 mg/kg: Rattus norvegicus, po, read-out: increase (%) of tail flick time; for change in vivo at 20 mg/kg / After (s) tail flick time: orally 20 mg/kg; for After (s) tail flick time: 30-45 minutes after administration. Here is the method: A 8.75 mm-projecting lamp (12 v, 50 w) was used to give out focused radiant heat. The terminal 3 cm of the tail is exposed to the heat. The intensity of the focused radiant heat is regulated by a transformer to ensure that the time required to elicit a tail flick response is within 3-5 seconds. The rat's pain threshold is pre-tested for 2-3 times; and only animals with stable reactions were used in the pharmaceutical test. The test substance is taken orally 20 mg/kg. The number of rats whose increase in time for eliciting a tail flick response is by 100% or more at the peak of the drug action (30-45 minutes after administration) is used to calculate analgesic effect.
as §1

[5] abbreviates: read-out: Analgesic ratio (Increase by 100%).
The mark [6] stands for this setting: read-out: Analgesic ratio (More than 60 seconds).

Usually melting point stands for the temperature, or range, at which the solid turns liquid. The molecule `COc1cc(CN2CCN(C(C)C(=O)c3ccc4c(Cl)c(OC)ccc4c3)CC2)cc(OC)c1OC` (stereo not drawn) (as salt: hydrochloride) yielded a melting point of 219 to 222 °C.
The same measure, in the same setting: as for `CC(C(=O)c1ccccc1)N1CCN(Cc2ccc(Cl)cc2)CC1` (stereo not drawn) (as salt: hydrochloride), the figure is 260 to 262 °C.
Take `CC(=O)Nc1ccc(CN2CCN(CC(=O)c3ccccc3)CC2)cc1` [IV-21, N^1-(4-acetamidobenzyl)-N^4-phenacyl piperazine]: in data set [1] (20 mg/kg, Table 5 summary), the “Sedation (writhing model)” value is listed as 92. Besides, the inhibition in vivo at 20 mg/kg in data set [1] is 92%; in data set [2] it was 100%. Further, the “Writhing (K i)” value in data set [2] (20 mg/kg, Table 5 summary) is on record as 100. Besides, the “Increase (hot plate) (%)” value in data set [3] (20 mg/kg, Table 5 summary) is on record as 100%. The responders at 20 mg/kg in data set [3] (setting [5]) is 100%; in data set [3] (setting [6]) it was 50%. In data set [4] (20 mg/kg, Table 5 summary), the “Increase (tail flick) (%)” value is 28%. Moreover, the change in vivo at 20 mg/kg in data set [4] is 28%. Also, the “After (s) tail flick time” value in data set [4] is listed as 9.72 s.
`CC(c1ccccc1)N1CCN(CC(=O)c2ccccc2)CC1` (stereo not drawn) [IV-37, N^1-(1-phenylethyl)-N^4-phenacyl piperazine]: the inhibition in vivo at 20 mg/kg in data set [1] was 90.1%; in data set [2], 100%. The responders at 20 mg/kg in data set [3] (setting [5]) and in data set [3] (setting [6]) was 100% in each case. In data set [4], the change in vivo at 20 mg/kg was 25%. For the same molecule, in data set [4], the “After (s) tail flick time” value came out at 10.54 s.
As to `C[C@H](c1ccccc1)N1CCN(CC(=O)c2ccccc2)CC1` (as salt: hydrochloride) [IV-38, N^1—(R-1-phenylethyl)-N^4-phenacyl piperazine], the melting point lay in the range of 230 to 232 °C.
On the same count and under the same terms, as for `O=C(CN1CCN(Cc2ccccc2)CC1)c1ccc(Cl)cc1` (as salt: hydrochloride) [IV-6, N^1-benzyl-N^4-(4-chlorophenacyl)piperazine], the figure is 231 to 233 °C; as for `COc1ccc(C(=O)CN2CCN(Cc3ccccc3)CC2)cc1` (as salt: hydrochloride) [IV-8, N^1-benzyl-N^4-(4-methoxyphenacyl)piperazine], 228 to 230 °C.
On the same count and under the same terms, as for `COc1ccc2cc(C(=O)C(C)N3CCN(Cc4ccccc4)CC3)ccc2c1Cl` (stereo not drawn) (as salt: hydrochloride), the figure is 252 to 253 °C (dec.); as for `O=C(CN1CCN(Cc2ccccc2)CC1)c1ccc([N+](=O)[O-])cc1` (as salt: hydrochloride) [IV-9, N^1-benzyl-N^4-(4-nitrophenacyl)piperazine], 236 to 238 °C.
On the same count and under the same terms, as for `COc1ccc2cc(C(=O)C(C)N3CCN(Cc4ccc5c(c4)OCO5)CC3)ccc2c1Cl` (stereo not drawn) (as salt: hydrochloride), the figure is 230 to 232 °C; as for `O=C(CN1CCN(Cc2ccccc2)CC1)c1ccc2ccccc2c1` (as salt: hydrochloride) [IV-7, N^1-benzyl-N^4-(2-naphthoylmethyl)piperazine], 241 °C (dec.); as for `O=C(CN1CCN(Cc2ccc3c(c2)OCO3)CC1)c1ccccc1` (as salt: hydrochloride) [IV-19, N^1-(3,4-methylenedioxybenzyl)-N^4-phenacyl piperazine], 240 to 241 °C.
Turning to `Nc1ccc(C(=O)CN2CCN(Cc3ccccc3)CC2)cc1` (as salt: hydrochloride) [IV-16, N^1-benzyl-N^4-(4-aminophenacyl)piperazine], the melting point fell in the range of 286 to 288 °C.
Turning to `O=C(CN1CCN(Cc2ccc(F)cc2)CC1)c1ccc(Cl)cc1` (as salt: hydrochloride) [IV-20, N^1-(4-fluorobenzyl)-N^4-(4-chlorophenacyl)piperazine], the melting point is 246 to 248 °C (dec.).
Regarding `O=C(CN1CCN(Cc2ccc3c(c2)OCO3)CC1)c1ccccc1` [IV-19, N^1-(3,4-methylenedioxybenzyl)-N^4-phenacyl piperazine], the inhibition in vivo at 20 mg/kg in data set [1] worked out at 93%; in data set [2], 97%. The responders at 20 mg/kg in data set [3] (setting [5]) was determined as 70%; in data set [3] (setting [6]), 50%. Moreover, in data set [4], the change in vivo at 20 mg/kg turned out to be 6.7%. The “After (s) tail flick time” value in data set [4] is reported as 8.58 s.
`COc1ccc(CN2CCN(CC(=O)c3ccccc3)CC2)cc1` (as salt: hydrochloride) [IV-10, N^1-(4-methoxybenzyl)-N^4-phenacyl piperazine] returned a melting point of 222 to 224 °C.
In turn, `O=C(CN1CCN(Cc2ccccc2)CC1)c1ccccc1` (as salt: hydrochloride) [IV-1, N^1-benzyl-N^4-phenacyl piperazine] came in with a melting point of 238 to 239 °C.
Still for that read-out and setting: the result for `COc1ccc2cc(C(=O)C(C)N3CCN(C(C)c4ccccc4)CC3)ccc2c1Cl` (stereo not drawn) (as salt: hydrochloride) [IV-43, N^1-(1-phenylethyl)-N^4-[1-(5-chloro-6-methoxy-2-naphthoyl)ethyl]piperazine] reads 231 to 232 °C.
Turning to `O=C(CN1CCN(Cc2ccc([N+](=O)[O-])cc2)CC1)c1ccccc1` (as salt: hydrochloride) [IV-4, N^1-(4-nitrobenzyl)-N^4-phenacyl piperazine], the melting point was in the range of 236 to 238 °C.
On the same count and under the same terms, as for `O=C(CN1CCN(Cc2ccc(Cl)cc2)CC1)c1ccccc1` (as salt: hydrochloride) [IV-3, N^1-(4-chlorobenzyl)-N^4-phenacyl piperazine], the figure is 256 to 258 °C; as for `CC(C(=O)c1ccccc1)N1CCN(Cc2ccc(N)cc2)CC1` (stereo not drawn) (as salt: hydrochloride) [IV-13, N^1-(4-aminobenzyl)-N^4-(1-benzoylethyl)piperazine], 244 to 246 °C (dec.); as for `COc1ccc(OC)c(CN2CCN(CC(=O)c3ccccc3)CC2)c1` (as salt: hydrochloride) [IV-15, N^1-(2,5-dimethoxybenzyl)-N^4-phenacyl piperazine], 238 to 240 °C.
`Cc1ccc(C(=O)CN2CCN(C(C)c3ccc([N+](=O)[O-])cc3)CC2)cc1` (stereo not drawn) [IV-27, N^1-[1-(4-nitrophenyl)ethyl]-N^4-(4-methylphenacyl)piperazine]: the inhibition in vivo at 20 mg/kg in data set [1] stood at 74%; in data set [2], 57%. Besides, the values for the responders at 20 mg/kg in data set [3] (setting [5]) and in data set [3] (setting [6]) were 20% and 0%, respectively. Besides, the Excitement entry in data set [3] (i.p. 20 mg/Kg) is “no”. In addition, the Sedation result in data set [3] (i.p. 20 mg/Kg, grade symbols, key not given) was “no”. Moreover, the change in vivo at 20 mg/kg in data set [4] is 9.2%. Further, the “After (s) tail flick time” value in data set [4] stood at 9.37 s.
In the case of `COc1ccc2cc(C(=O)C(C)N3CCN(Cc4ccc(N)cc4)CC3)ccc2c1Cl` (stereo not drawn) (as salt: hydrochloride), the melting point fell in the range of 206 to 208 °C.
The same measure, in the same setting: as for `Cc1ccc(C(=O)CN2CCN([C@H](C)c3ccccc3)CC2)cc1` (as salt: hydrochloride) [IV-41, N^1—(R-1-phenylethyl)-N^4-(4-methylphenacyl)piperazine], the figure is 231 to 232 °C.
Still for that read-out and setting: as for `O=C(CN1CCN(CCc2ccccc2)CC1)c1ccccc1` (as salt: hydrochloride) [IV-14, N^1-phenethyl-N^4-phenacyl piperazine], the figure is 238 to 240 °C.
Still for that read-out and setting: as for `O=C(CN1CCN(Cc2cccnc2)CC1)c1ccccc1` (as salt: hydrochloride) [IV-11, N^1-(3-pyridylmethyl)-N^4-phenacyl piperazine], the figure is 225 to 226 °C.
As to `COc1ccc(CN2CCN(CC(=O)c3ccccc3)CC2)cc1` [IV-10, N^1-(4-methoxybenzyl)-N^4-phenacyl piperazine], the inhibition in vivo at 20 mg/kg in data set [1] stood at 99%; in data set [2], 100%. In addition, the responders at 20 mg/kg was 90% in data set [3] (setting [5]) and 70% in data set [3] (setting [6]). The change in vivo at 20 mg/kg in data set [4] came to 9.4%. Also, in data set [4], the “After (s) tail flick time” value stood at 8.81 s.
In the case of `COc1cccc(CN2CCN(CC(=O)c3ccccc3)CC2)c1` [IV-25, N^1-(3-methoxybenzyl)-N^4-phenacyl piperazine], the inhibition in vivo at 20 mg/kg in data set [1] was 88%; in data set [2], 100%. The values for the responders at 20 mg/kg in data set [3] (setting [5]) and in data set [3] (setting [6]) were 40% and 10%, respectively. For the same molecule, the change in vivo at 20 mg/kg in data set [4] amounted to 12%. Besides, the “After (s) tail flick time” value in data set [4] is listed as 8.37 s.
Turning to `Cc1ccc(C(=O)CN2CCN(C(C)c3ccccc3)CC2)cc1` (stereo not drawn) [IV-40, N^1-(1-phenylethyl)-N^4-(4-methylphenacyl)piperazine], the responders at 20 mg/kg in data set [3] (setting [5]) is 10%. For the same molecule, the responders at 20 mg/kg in data set [3] (setting [6]) came out at 10%. Also, in data set [4], the change in vivo at 20 mg/kg came out at 8% and the “After (s) tail flick time” value came to 7.88 s.
